Reference: article PMC7931429 (ACS Omega, 2021)

Experiments:
[1] = molecular target: T1, CHIKV nsP2 (Chikungunya virus, UniProt Q8JUX6); assay: Cell-free protease inhibition assay with recombinant CHIKV nsP2; assay type: biochemical; settings: inhibitor 1 mM, nsP2 1.4 μM, substrate 6 μM, 30 °C, 1.5 h
T1 sequence (Q8JUX6 536-1333 limits assumed): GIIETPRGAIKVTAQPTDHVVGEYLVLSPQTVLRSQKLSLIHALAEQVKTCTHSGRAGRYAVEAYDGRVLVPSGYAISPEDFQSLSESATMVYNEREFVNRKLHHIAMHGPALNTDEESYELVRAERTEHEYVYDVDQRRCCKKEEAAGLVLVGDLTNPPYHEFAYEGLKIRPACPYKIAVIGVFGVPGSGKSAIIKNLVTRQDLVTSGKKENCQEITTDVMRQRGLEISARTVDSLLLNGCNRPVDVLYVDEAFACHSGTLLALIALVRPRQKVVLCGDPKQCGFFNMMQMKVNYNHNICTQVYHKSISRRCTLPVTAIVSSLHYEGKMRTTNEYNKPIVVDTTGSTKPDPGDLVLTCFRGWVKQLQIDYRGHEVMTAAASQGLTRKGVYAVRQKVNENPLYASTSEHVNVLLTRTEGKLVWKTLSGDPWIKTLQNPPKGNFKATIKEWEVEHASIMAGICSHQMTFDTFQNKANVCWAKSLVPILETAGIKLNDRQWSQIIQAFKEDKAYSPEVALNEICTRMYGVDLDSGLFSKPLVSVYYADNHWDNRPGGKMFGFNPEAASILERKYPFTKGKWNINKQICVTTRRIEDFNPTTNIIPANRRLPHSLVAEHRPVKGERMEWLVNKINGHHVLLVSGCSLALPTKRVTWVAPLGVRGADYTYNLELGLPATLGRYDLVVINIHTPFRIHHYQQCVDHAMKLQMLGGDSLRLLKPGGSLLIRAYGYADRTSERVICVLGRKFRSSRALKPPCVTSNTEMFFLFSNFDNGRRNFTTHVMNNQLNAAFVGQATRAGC

[2] = test system: CHIKV-NanoLuc; assay: Antiviral activity against CHIKV-NanoLuc in RPE cells; assay type: cell-based; settings: Chikungunya virus, 48 h, read-out: IC50 in RPE cells
[3] = test system: CHIKV-NanoLuc; assay type: cell-based, Chikungunya virus; settings: BHK-21 cells, MOI 10, 6 h post infection, concentration 10 times higher than IC50

Row | Compound | Effect on protease activity of nsP2 (amount of cleavage product) [1] | IC50 [2] [µM] | Virus replication (ns-protein and capsid protein expression) by western blot [3]
1 | O=C(Nc1ncc([N+](=O)[O-])s1)c1ccccc1O [Compound 10, 2-hydroxy-N-(5-nitro-1,3-thiazol-2-yl)benzamide] | strongest inhibitory effect | 7.3 | completely inhibited
2 | O=C(Nc1ncc([N+](=O)[O-])s1)c1cccc(Cl)c1 [Compound 10b, 3-chloro-N-(5-nitro-1,3-thiazol-2-yl)benzamide] | smaller inhibitory effect than compound 10 |  | 
3 | O=C(Nc1ncc([N+](=O)[O-])s1)c1cc(Cl)ccc1Cl [Compound 10c, 2,5-dichloro-N-(5-nitro-1,3-thiazol-2-yl)benzamide] | smaller inhibitory effect than compound 10 |  | 
4 | (5Z)-3-ethyl-5-(naphthalen-1-ylmethylidene)-2-sulfanylidene-1,3-oxazolidin-4-one [Compound 1] | no effect |  | 
